Results taken from patent US20150259331A1, “PROTOZOAN PARASITE GROWTH INHIBITORS” (Northeastern University, priority 2014, published 2015).
Where a name gives a salt, the structure may show the parent alone. Read-outs that look alike come from different tables or passages of the source.

Columns and labels:
L. major promastigote = L. major promastigote assay; format: cell-based
P. falciparum D6 = P. falciparum D6 assay; format: cell-based; conditions: strain D6
HepG2 cells = assay: HepG2 cell toxicity (MTT) assay; format: cell-based
Protocol: (§1) Then 2 μL of DMSO (control) or different concentrations of drugs prepared from 200× DMSO stocks were added to the cultures. […] All experiments were repeated thrice in independent studies where each dose was administered in duplicate (total n=6). HepG2 Cell Toxicity Assay. The 384 well MTT cytotoxicity assay is a modification of the MTT method described by Ferrari et al. optimized for 384-well throughput, with modifications described below.
HepG2 Cell Toxicity assay. The 384 well MTT cytotoxicity assay is a modification of the MTT method described by Ferrari et al.^1 ENREF—26_ENREF—26_ENREF—26 optimized for 384 well throughput. […] 4.25 μL of diluted test compound was then added to the 38.3 μL of media in each well providing a 10 fold final dilution of compound. […] After a 48 hour incubation period, 8 μL of a 1.5 mg/ml solution of MTT diluted in complete MEM media was added to each well. All plates were subsequently incubated in the dark for 1 hour at room temperature. After incubation, the media and drugs in each well was removed by shaking plate over sink, the plates are then left to dry in hood for 15 minutes. […] Plates are put on a 3-D rotator for 15-30 minutes. Absorbance was determined in all wells using a Tecan iControl 1.6 Infinite plate reader.

P. falciparum W2 = P. falciparum W2 assay; format: cell-based
T. cruzi = T. cruzi growth inhibition; format: cell-based, Trypanosoma cruzi; conditions: for inhibition at 10 µM: read-out: T. cruzi % inh at 10 μM
P. falciparum C235 = P. falciparum C235 assay; format: cell-based; conditions: read-out: P. falciparum C235 (EC50)
[1] = system: T. brucei brucei Lister 427; assay: Trypanosome replication assay; format: cell-based, Trypanosoma brucei brucei; conditions: 48 h, 48 h, values ±7%
Protocol: as §1, with “cultures. Cells were incubated at 37° C. for 48 h and counted with a hemocytometer.” for “cultures.”

L. major amastigote = L. major amastigote assay; format: cell-based
[2] = Homo sapiens, HepG2, 48 h, MTT, 48 hour incubation, read-out: HepG2 IC50
[3] = Plasmodium falciparum, strain W2, read-out: P. falciparum W2 (EC50)
[4] = Plasmodium falciparum, strain C235
[5] = Trypanosoma brucei, concentration giving 50% inhibition of growth of T brucei brucei Lister 427 cells, read-out: Tbb EC50
[6] = Trypanosoma brucei, read-out: Tbb EC50, concentration giving 50% inhibition of growth of T brucei brucei Lister 427 cells
[7] = MTT, 48 hour incubation, read-out: HepG2 IC50
[8] = strain W2, read-out: P. falciparum W2 (EC50)
[9] = concentration giving 50% inhibition of growth of T brucei brucei Lister 427 cells, read-out: Tbb EC50

| Compound | EC50 (L. major promastigote; Leishmania major) [µM] | EC50 (P. falciparum D6; Plasmodium falciparum) [nM] | EC50 (P. falciparum W2; [3]) [nM] | EC50 (P. falciparum C235; [4]) [nM] | EC50 [1, 5] [nM] | EC50 (L. major amastigote; Leishmania major) [µM] | IC50 (HepG2 cells; [2]) [µM] | inhibition at 10 µM (T. cruzi; Trypanosoma cruzi) [%] | also measured |
| --- | --- | --- | --- | --- | --- | --- | --- | --- | --- |
| Fc1cccc(COc2ccc(Nc3ncnc4ccc(-c5ccc(N6CCOCC6)cc5)cc34)cc2Cl)c1 [Compound 23b, N-(3-Chloro-4-((3-fluorobenzyl)oxy)phenyl)-6-(4-morpholinophenyl)quinazolin-4-amine] | 4.4 | 270 | 1100 | 290 |  | > 15 | 9.6 | 10 | EC50 [1, 6]: 1910 nM; EC50 ([1]; read-out: Tbb EC50, concentration giving 50% inhibition of growth of T brucei brucei Lister 427 cells, listed as NEU-733): 1900 nM |
| O=S(=O)(c1ccc(-c2ccc3ncnc(Nc4ccc(OCc5cccc(F)c5)c(Cl)c4)c3c2)cc1)N1CCSCC1 [Compound 10r, N-(3-Chloro-4-((3-fluorobenzyl)oxy)phenyl)-6-(4-(thiomorpholinosulfonyl)phenyl)quinazolin-4-amine] | > 15 | 460 | 1600 |  | 470 | > 15 | > 15 | 18 | EC50 (P. falciparum C235; Plasmodium falciparum): 760 nM |
| O=S(=O)(c1ccc(-c2ccc3ncnc(Nc4ccc(OCc5cccc(F)c5)c(Cl)c4)c3c2)cc1)N1CCNCC1 [Compound 10s] |  |  |  |  |  |  |  |  | EC50 (L. major promastigote): > 15 µM; EC50 (P. falciparum D6): 94 nM; IC50 (HepG2 cells; [7]): 3.32 µM; EC50 (P. falciparum W2; [8]): 200 nM; EC50 (T. cruzi): 790 nM; EC50 (P. falciparum C235; strain C235): 120 nM; EC50 [1, 9]: 280 nM; EC50 (L. major amastigote): 0.8 µM |
| Fc1cccc(COc2ccc(Nc3ncnc4ccc(-c5cccc(N6CCCCC6)c5)cc34)cc2Cl)c1 [Compound 23g, N-(3-Chloro-4-((3-fluorobenzyl)oxy)phenyl)-6-(3-(piperidin-1-yl)phenyl)quinazolin-4-amine] | > 15 | 640 |  |  |  | > 15 |  | 24 | IC50 (HepG2 cells; Homo sapiens, HepG2, 48 h, read-out: HepG2 IC50, MTT, 48 hour incubation): > 15 µM; EC50 (P. falciparum W2; Plasmodium falciparum, W2, read-out: P. falciparum W2 (EC50)): 1800 nM; EC50 (P. falciparum C235; Plasmodium falciparum): 1100 nM; EC50 [1, 6]: 760 nM |
| CN1CCCN(S(=O)(=O)c2ccc(-c3ccc4ncnc(Nc5ccc(OCc6cccc(F)c6)c(Cl)c5)c4c3)cc2)CC1 [Compound 10q, N-(3-Chloro-4-((3-fluorobenzyl)oxy)phenyl)-6-(4((4-methyl-1,4-diazepan-1-yl)sulfonyl)phenyl)quinazolin-4-amine] | 3.6 | 46 | 52 | 50 | 810 | 2 | 1.81 |  | EC50 (T. cruzi; Trypanosoma cruzi): 510 nM |
| CS(=O)(=O)c1cccc(-c2ccc3ncnc(Nc4ccc(OCc5cccc(F)c5)c(Cl)c4)c3c2)c1 [Compound 10u, N-(3-Chloro-4-((3-fluorobenzyl)oxy)phenyl)-6-(3-(methylsulfonyl)phenyl)quinazolin-4-amine] | 3.5 | 520 | 1300 | 620 |  | 4.7 | > 15 |  | EC50 (T. cruzi; Trypanosoma cruzi): 5000 nM; EC50 [1, 6]: 3210 nM; EC50 ([1]; read-out: Tbb EC50, concentration giving 50% inhibition of growth of T brucei brucei Lister 427 cells, listed as NEU-633): 3200 nM |
| Fc1cccc(COc2ccc(Nc3ncnc4ccc(-c5ccc(CN6CCOCC6)cc5)cc34)cc2Cl)c1 [Compound 23d] |  |  |  |  |  |  |  |  | EC50 (L. major promastigote): 2.7 µM; EC50 (P. falciparum D6): 64 nM; IC50 (HepG2 cells; [7]): 12.9 µM; EC50 (P. falciparum W2; [8]): 100 nM; EC50 (T. cruzi): 600 nM; EC50 (P. falciparum C235; strain C235): 85 nM; EC50 [1, 9]: 990 nM; EC50 (L. major amastigote): 5.9 µM |
| Cl.O=S(=O)(c1ccc(-c2ccc3ncnc(Nc4ccc(OCc5ccccc5F)c(Cl)c4)c3c2)cc1)N1CCOCC1 [Compound 20i, N-(3-Chloro-4-((2-fluorobenzypoxy)phenyl)-6-(4-(morpholinosulfonyl)phenyl)quinazolin-4-amine Hydrochloride] |  |  |  |  |  |  |  |  | EC50 (L. major promastigote): 0.71 µM; EC50 (P. falciparum D6): 130 nM; IC50 (HepG2 cells; [7]): > 15 µM; EC50 (P. falciparum W2; [8]): 570 nM; EC50 (P. falciparum C235; strain C235): 220 nM; EC50 ([1]; concentration giving 50% inhibition of growth of T brucei brucei Lister 427 cells, Hydrochloride, read-out: Tbb EC50): 1650 nM; EC50 ([1]; concentration giving 50% inhibition of growth of T brucei brucei Lister 427 cells, listed as NEU-565, Hydrochloride, read-out: Tbb EC50): 1700 nM; EC50 (L. major amastigote): > 15 µM |

Second part, led by results:

| EC50 (L. major promastigote; Leishmania major) [µM] | EC50 (P. falciparum D6; Plasmodium falciparum) [nM] | EC50 (P. falciparum W2; [3]) [nM] | EC50 (P. falciparum C235; [4]) [nM] | EC50 [1, 5] [nM] | EC50 (L. major amastigote; Leishmania major) [µM] | Compound | IC50 (HepG2 cells; [2]) [µM] | inhibition at 10 µM (T. cruzi; Trypanosoma cruzi) [%] | also measured |
| --- | --- | --- | --- | --- | --- | --- | --- | --- | --- |
| 14 | 570 | 1110 | 640 | 540 | 2.5 | O=S(=O)(c1ccc(-c2ccc3ncnc(Nc4ccc(OCc5ccc(C(F)(F)F)c(F)c5)c(Cl)c4)c3c2)cc1)N1CCOCC1 [Compound 20l, N-(3-Chloro-4-((3-fluoro-4-(trifluoromethyl)benzyl)oxy)-phenyl)-6-(4-(morpholinosulfonyl)phenyl)quinazolin-4-amine Hydrochloride] | > 15 | 21 |  |
| 4.1 | 4100 | 4100 | 4100 | 1440 | 4.1 | O=S(=O)(c1ccc(-c2ccc3ncnc(Nc4ccccc4)c3c2)cc1)N1CCOCC1 [Compound 20a, 6-(4-(Morpholinosulfonyl)phenyl)-N-phenylquinazolin-4-amine Hydrochloride] | > 3 | 13 | EC50 ([1]; concentration giving 50% inhibition of growth of T brucei brucei Lister 427 cells, listed as NEU-548, Hydrochloride, read-out: Tbb EC50): 1400 nM |
|  |  |  |  | 820 |  | O=S(=O)(c1ccc(-c2ccc3ncnc(Nc4ccc(OCc5cccc(F)c5F)c(Cl)c4)c3c2)cc1)N1CCOCC1 [Compound 20h, N-(3-Chloro-4-((2,3-difluorobenzyl)oxy)phenyl)-6-(4-(morpholinosulfonyl)phenyl)quinazolin-4-amine Hydrochloride] | > 15 |  |  |
| 14 | 200 | 440 | 410 | 680 | 0.47 | O=S(=O)(c1ccc(-c2ccc3ncnc(Nc4ccc(OCc5cccc(Br)c5)c(Cl)c4)c3c2)cc1)N1CCOCC1 [Compound 20f, N-(4-((3-Bromobenzyl)oxy)-3-chlorophenyl)-6-(4-(morpholinosulfonyl)phenyl)quinazolin-4-amine Hydrochloride] | > 15 | 7 |  |
| > 15 | 12000 | 19000 | 19000 | 1060 | > 15 | O=S(=O)(c1ccc(-c2ccc3ncnc(Nc4ccc(O)c(Cl)c4)c3c2)cc1)N1CCOCC1 [Compound 20c, 2-Chloro-4-((6-(4-(morpholinosulfonyl)phenyl)quinazolin-4-yl)amino)phenol Hydrochloride] | > 15 | 14 | EC50 ([1]; concentration giving 50% inhibition of growth of T brucei brucei Lister 427 cells, listed as NEU-550, Hydrochloride, read-out: Tbb EC50): 1100 nM |
| 1.3 | 220 | 690 | 410 | 1390 | 1.6 | O=S(=O)(c1ccc(-c2ccc3ncnc(Nc4ccc(OCc5cccc(F)c5)c(Cl)c4)c3c2)cc1)N1CCOCC1 [Compound 10a, N-(3-Chloro-4-((3-fluorobenzyl)oxy)phenyl)-6-(4-(morpholinosulfonyl)phenyl)quinazolin-4-amine] | > 15 | -46 | EC50 (HepG2 cells; Homo sapiens, HepG2, read-out: HepG2 cell growth EC50): > 15 µM; IC50 (HepG2 cells; [7]): > 20 µM; EC50 ([1]; concentration giving 50% inhibition of growth of T brucei brucei Lister 427 cells, listed as NEU-369, read-out: Tbb EC50): 1300 nM |
